Series [1] addresses human PHD2184-418 (Homo sapiens (Human), UniProt Q9GZT9). The experiment in a line: PHD2 inhibitory test (fluorescence polarization, binding between PHD2 and HIF-1α). The following applies: human PHD2184-418, FITC-labeled HIF-1α556-574, 2 μM 2-oxoglutarate, 37° C. 60 minutes. The essentials: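 N-His-tagged human PHD2 (residues 184–418, E. coli-expressed) was preincubated with compound, then FITC-Ahx-HIF-1α556-574 peptide was added in pH 7.4 HEPES buffer with 10 μM MnCl2 and 2 μM 2-oxoglutarate. After 60 min at 37 °C, fluorescence polarization (ex 470/em 530 nm) was read. Inhibition was calculated against compound-free wells.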
On the technique in general: In fluorescence polarisation assays a small probe gives low polarisation when free and higher when bound to something large.

Series [2] has as its system TNBS induced colitis model rat. The experiment in a line: Therapeutic effect in TNBS induced colitis model rat (intestinal permeability of FITC). The following applies: po, 72 h, 3 mg/kg orally once a day for 3 days, SD rats, mean, test compounds-free group 0, TNBS-untreated group 100, read-out: Inhibition (%): suppressive rate on the intestinal permeability. Type of series: in vivo. On the procedure:
Test Example 2 Therapeutic Effect in Colitis Model
(1) TNBS Induced Colitis Model Rat
SD rats: 8-weeks-old male SLC (Japan SLC) were used. Under pentobarbital anesthesia, 300 μL of TNBS (28 mg/mL) prepared by 50% ethanol was administered at a point 8 cm from anus in large intestine to cause inflammation. To the solvent-treated group was administrated 300 μL of 50% ethanol. Animals were fasted for 48 hours prior to administration of TNBS. Test compounds (3 mg/kg) prepared by 0.05% methylcellulose solution were orally administered once a day from next day, and it was administered for a total of 3 days. After administering for 3 days, 50 mg/kg FITC was orally administered at 4 hours after administration. Blood samples were collected from jugular vein under isoflurane anesthesia after 4 hours. The serum was centrifuged and fluorescence intensity was detected by PHERAstar FSX (BMG Labtech) to measure the concentration of FITC permeating into circulating blood through the mesentery. The suppressive rate on the intestinal permeability of test compounds was calculated based on the value of test compounds-free group as 0 and the value of TNBS-untreated group as 100.

A short description of series [3]: Rat PK study: concentration of compounds in large intestine tissue and plasma. The format is in vivo. The following applies: male, SD, 3 mg/kg oral; for Kp at 8 h: large intestine tissue / plasma, read-out: C/P: ratio of the above Colon and Plasma; for AUC / Cmax: non-fasted; for AUC: read-out: AUC: area under the plasma test compound concentration-time curve (converted); for Cmax: read-out: Cmax: maximum plasma concentration of test compounds in the case of oral administration. On the procedure:
Test Example 3 Concentration of Compounds in Large Intestine Tissue
Test compounds (3 mg/kg/5 mL) prepared by 0.05% methylcellulose were orally administered to non-fasted rats (SD, 8-weeks-old, male, Japan SLC). Blood samples were collected from jugular vein at 0.25, 0.5, 1, 2, 4, 6 and 8 hours after the administration. Laparotomy was performed under isoflurane anesthesia and large intestine was isolated. Collected distal large intestine (about 5 cm) was cut open, and then the large intestine was washed with saline on a dish. After washing, the large intestine was minced by a small scissors. About 150 mg thereof was moved to tube. To the tube was added 100 μL of saline, the mixture was homogenized using shake master (1000 rpm×30 minutes). Samples were prepared by the addition with quadruple volume of saline as final volume. The concentrations of the test compound in large intestine tissue and plasma were measured through a quantitative analysis using liquid chromatography-mass spectrometry (LC/MS).

Setting [4] is: large intestine tissue (distal large intestine), read-out: Colon: concentrations of the test compound in large intestine tissue after 8 hours.
Setting [5] is: plasma, read-out: Plasma: plasma test compound concentration after 8 hours.

pIC50: −log10 of the molar value. Where two headings read alike, the source gives them in different places.

For orientation: pIC50 means −log10 of the IC50, conventionally taken in molar units. High values mean a small IC50, low ones a large IC50.

Sequence of human PHD2184-418 (Q9GZT9 184-418): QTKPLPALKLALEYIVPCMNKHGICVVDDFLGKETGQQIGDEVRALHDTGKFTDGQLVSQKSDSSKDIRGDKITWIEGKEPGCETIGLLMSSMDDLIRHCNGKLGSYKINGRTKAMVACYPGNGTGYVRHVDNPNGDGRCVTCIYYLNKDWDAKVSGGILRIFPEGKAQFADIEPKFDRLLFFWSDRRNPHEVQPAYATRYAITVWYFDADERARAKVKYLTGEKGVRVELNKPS

Take `O=C(O)c1ccc(-c2ccc(-n3c(=O)n([C@H]4CCN(Cc5cc(C(=O)O)ccn5)C4)c4ncccc43)cn2)cc1` [Example 46, (S)-2-((3-(1-(6-(4-Carboxyphenyl)pyridin-3-yl)-2-oxo-1,2-dihydro-3H-imidazo[4,5-b]pyridin-3-yl)pyrrolidin-1-yl)methyl)isonicotinic acid]: the pIC50 in series [1] is 6.82. In addition, the inhibition in vivo at 3 mg/kg in series [2] turned out to be 63%. Further, the concentration at 8 h in series [3] (setting [4]) was 174 ng/g; in series [3] (setting [5]), less than 1 ng/mL. Further, the Kp at 8 h in series [3] is more than 174. Moreover, the AUC in series [3] (plasma) was 5.23 ng·h/mL. Also, in series [3] (plasma), the Cmax worked out at 3 ng/mL.
For `Cn1ccnc1CN1CC[C@H](n2c(=O)n(-c3ccc(-c4ccc(C(=O)O)cc4)c(O)c3)c3cccnc32)C1` [Example 40, (S)-2′-Hydroxy-4′-(3-(1-((1-methyl-1H-imidazol-2-yl)methyl)pyrrolidin-3-yl)-2-oxo-2,3-dihydro-1H-imidazo[4,5-b]pyridin-1-yl)-[1,1′-biphenyl]-4-carboxylic acid], the pIC50 in series [1] is 6.12. Further, in series [2], the inhibition in vivo at 3 mg/kg amounted to 84%. Moreover, the concentration at 8 h in series [3] (setting [4]) was 209 ng/g; in series [3] (setting [5]) it was less than 1 ng/mL. Also, the Kp at 8 h in series [3] is more than 209. For the same molecule, the Cmax in series [3] (plasma) is less than 1 ng/mL.
With `Cn1ccnc1CN1CC[C@H](n2c(=O)n(-c3ccc(-c4ccc(C(=O)O)cc4)cc3O)c3cccnc32)C1` [Example 39, (S)-3′-Hydroxy-4′-(3-(1-((1-methyl-1H-imidazol-2-yl)methyl)pyrrolidin-3-yl)-2-oxo-2,3-dihydro-1H-imidazo[4,5-b]pyridin-1-yl)-[1,1′-biphenyl]-4-carboxylic acid], in series [1], the pIC50 is 6.47. Moreover, the inhibition in vivo at 3 mg/kg in series [2] was determined as 95%. Also, the concentration at 8 h in series [3] (setting [4]) is 214 ng/g; in series [3] (setting [5]), 3 ng/mL. Moreover, the Kp at 8 h in series [3] was determined as 71. Further, in series [3] (plasma), the AUC is 34.8 ng·h/mL. Moreover, in series [3] (plasma), the Cmax is 7 ng/mL.
Take `Cn1c(C(=O)O)cnc1CN1CC[C@H](n2c(=O)n(-c3ccc(-c4ccc(C(=O)O)cc4)cc3)c3cccnc32)C1` [Example 83, (S)-2-((3-(1-(4′-Carboxy-[1,1′-biphenyl]-4-yl)-2-oxo-1,2-dihydro-3H-imidazo[4,5-b]pyridin-3-yl)pyrrolidin-1-yl)methyl)-1-methyl-1H-imidazole-5-carboxylic acid]: the pIC50 in series [1] is 6.85. Moreover, in series [2], the inhibition in vivo at 3 mg/kg was determined as 85%. Further, the concentration at 8 h in series [3] (setting [4]) stood at 54 ng/g. For the same molecule, the Kp at 8 h in series [3] was more than 54. Besides, the concentration at 8 h in series [3] (setting [5]) was less than 1 ng/mL. In series [3] (plasma), the AUC is 21.5 ng·h/mL and the Cmax amounted to 5 ng/mL.

For the origin of these results see patent US12077531B2, “Imidazopyridinone compound” (KISSEI PHARMACEUTICAL CO., LTD., priority 2018, dated 2024).
